Where only a bound is given, the exact number is not on record here.

Assay [1] has as its system C3 mRNA. The assay can be described thus: Complement gene mRNA expression, TaqMan real-time PCR, Huh-7 cells. Type of assay: cell-based, human. The note with it: for IC50: Homo sapiens. The source says:
(§1) In this example, mRNA levels from cultured cells were quantitated. The assay can be used to determine the effect of compound(s) on regulating mRNA levels, including those compounds in the present invention. Complement genes are expressed at high endogenous levels, but their expression can also be stimulated with various cytokines in inflammatory conditions. Experiments in this example target both basal and inflammatory complement gene expression. Compound mediated changes in gene expression and resulting mRNA levels are presented in Tables 2, 3 and 4 as well as FIGS. 1, 2, 3 and 4 below.
(§2) Huh-7 and HepG2 cells are liver-derived cell lines and are models for what can occur in the liver. Huh-7 cells (JCRB Cell Bank) were introduced to 96-well plates (^˜2.5×10^5 per well) in 100 μL DMEM containing 10% (v/v) FBS, 100 U/mL penicillin, 100 ug/mL streptomycin and 5 ug/mL plasmocin (all reagents from Gibco, except for the former, which was obtained from Invivogen). After 24 h, Huh-7 cells were treated with compounds in the same media formulation used for plating, and supplemented with 0.1% DMSO for the amount of time indicated in tables 2, 3, and 4. For select experiments, 24 h post-plating, cells were treated with cytokines and the compound of interest simultaneously, for a total treatment time of 48 h. Alternatively, 24 h after plating, cells were pre-treated with cytokines for 24 h before adding the compound of interest for 48 h. HepG2 cells (ATCC) were cultured in 96-well plates (^˜2.5×10^5 per well) in MEM containing 10% FBS, 1× non-essential amino acids, 1 mM sodium pyruvate, 2 mM L-glutamine, 100 U/mL penicillin, 100 ug/mL streptomycin and 5 ug/mL plasmocin. Serum amount was reduced to 0.5% for treatments with compound or cytokines. Timing of treatment of HepG2 cells with compounds and cytokines was as described for Huh-7 cells. Primary human hepatocytes (CellzDirect/Life Technologies) were plated in collagen coated 96-well plates at 70 000 cells/well, then overlaid with Matrigel™ as recommended by the supplier. Cells were treated with compounds of interest and/or cytokines for the indicated time points in the recommended media supplemented with 0.1% DMSO and 10% FBS (v/v). Cells were harvested by mRNA Catcher PLUS Kit (Life Technologies) followed by real-time PCR using the RNA UltraSense One-Step qRT-PCR System. The level of the mRNA of interest was measured by TaqMan real-time PCR relative to the endogenous control cyclophilin A in the same sample. Data were acquired using the ViiA-7 Real Time PCR System (Applied Biosystems).
(§3) Downregulation of expression of components of the complement cascade will result in reduced activity of the pathway and thus will constitute a positive result. Tables 2 and 3 list the concentration of compounds at which the level of the indicated mRNA is reduced by 50%, as well as the duration of treatment with compound. Table 4 lists the maximum reduction in the indicated mRNA measured in primary human hepatocytes treated with compounds for up to 72 hours. FIGS. 1, 2, 3 and 4 show effects of compounds on cytokine-induced (i.e. inflammatory) expression of complement genes in Huh-7 cells and HepG2 cells.

Assay [2] concerns C4a/C4b mRNA. Described as above. The note with it: for IC50: Homo sapiens. In kind it is cell-based, human.
From the text: as §1, §2, §3

Assay [3] relates to C5 mRNA. Described as above. Type of assay: cell-based, human. The note with it: for IC50: Homo sapiens.
From the text: as §1, §2, §3

For assay [4], the system named is C3 mRNA. The assay is described as follows: Complement gene mRNA expression, TaqMan real-time PCR, HepG2 cells. The note with it: for IC50: Homo sapiens. Type of assay: cell-based, human.
From the text: as §1, §2, §3

Assay [5] concerns C4a/C4b mRNA. The description is as above. In kind it is cell-based, human. The settings on record: for IC50: Homo sapiens, HepG2, 72 h, read-out: C4a/C4b (72 h) mRNA, half maximal inhibitory concentration (IC50).
From the text: as §1, §2, §3

The test system of assay [6] is C5 mRNA. The assay is described as above. The note with it: for IC50: Homo sapiens, HepG2, 72 h, read-out: C5 (72 h) mRNA, half maximal inhibitory concentration (IC50). In kind it is cell-based, human.
From the text: as §1, §2, §3

A further assay concerns C-reactive protein. The assay can be described thus: SOMAscan protein quantitation in clinical samples, ASSURE trial. The settings on record: 200 mg/day, week 26 vs. baseline. Type of assay: in vivo, human. As to the method:
(§4) In this example, plasma samples from human subjects treated with placebo or RVX000222 are analyzed by the SOMAscan™ assay (SomaLogic). The method can be used to determine the effect of compounds, including those in the present invention, on the abundance of proteins, including complement components, in clinical samples. […] Using the SOMAscan™ technology, each sample is analyzed for the relative presence and amount of 1,310 different proteins. The changes in values for each protein analyte are calculated versus the baseline measure, and statistically significant (p<0.05) values are reported (Table 10). Downregulation of expression of components of the complement cascade will result in reduced activity of the pathway and thus will constitute a positive result.

For the next assay, the system named is C5a anaphylatoxin. Described as above. Type of assay: in vivo, human. The note with it: 200 mg/day, week 26 vs. baseline. As to the method: as §4
Assay [7] deals with Complement C1s subcomponent. The description is as above. Type of assay: in vivo, human. The settings on record: 200 mg/day, week 26 vs. baseline. As to the method: as §4
Another assay concerns Complement C2. The description is as above. Type of assay: in vivo, human. The settings on record: 200 mg/day, week 26 vs. baseline. As to the method:
as §4

The subject of assay [8] is Complement C5b-C6 complex. The description is as above. Type of assay: in vivo, human. The settings on record: 200 mg/day, week 26 vs. baseline. As to the method:
as §4

For the next assay, the system named is Complement C5. Described as above. Type of assay: in vivo, human. The settings on record: 200 mg/day, week 26 vs. baseline. As to the method: as §4
In a further assay the test system is Complement component C6. The assay is described as above. In kind it is in vivo, human. The note with it: 200 mg/day, week 26 vs. baseline. As to the method:
as §4

The test system of another assay is Complement component C9. Described as above. In kind it is in vivo, human. The settings on record: 200 mg/day, week 26 vs. baseline. As to the method: as §4
The subject of assay [9] is Complement decay-accelerating factor. Described as above. The note with it: 200 mg/day, week 26 vs. baseline. In kind it is in vivo, human. As to the method:
as §4

A further assay deals with Complement factor B. Described as above. The note with it: 200 mg/day, week 26 vs. baseline. Type of assay: in vivo, human. As to the method:
as §4

In another assay the test system is Complement factor H. Described as above. The settings on record: 200 mg/day, week 26 vs. baseline. In kind it is in vivo, human. As to the method: as §4
A further assay relates to Complement factor I. The assay is described as above. In kind it is in vivo, human. The note with it: 200 mg/day, week 26 vs. baseline. As to the method:
as §4

Assay [10] has as its system Mannose-binding protein C. The assay is described as above. In kind it is in vivo, human. The note with it: 200 mg/day, week 26 vs. baseline. As to the method:
as §4

[11] abbreviates: Huh-7, 48 h treatment, read-out: C3 (48 h) mRNA, half maximal inhibitory concentration (IC50).
[12] abbreviates: read-out: C4a/C4b (72 h) mRNA, half maximal inhibitory concentration (IC50), Huh-7, 72 h treatment.
Where [13] appears, read: read-out: C5 (72 h) mRNA, half maximal inhibitory concentration (IC50), Huh-7, 72 h treatment.
The mark [14] stands for this setting: HepG2, 72 h, read-out: C3 (72 h) mRNA, half maximal inhibitory concentration (IC50).
The mark [15] stands for this setting: Huh-7 pre-treated with cytokines.
Where [16] appears, read: Huh-7 treated simultaneously with cytokines.
Where [17] appears, read: HepG2 pre-treated with cytokines.
Where [18] appears, read: HepG2 treated simultaneously with cytokines.

Regarding `Cc1sc2c(c1C)C(c1ccc(Cl)cc1)=N[C@@H](CC(=O)OC(C)(C)C)c1nnc(C)n1-2` [JQ1, (S)-tert-butyl 2-(4-(4-chlorophenyl)-2,3,9-trimethyl-6H-thieno[3,2-f][1,2,4]triazolo[4,3-a][1,4]diazepin-6-yl)acetate, reference compound], the IC50 in the assay with C3 mRNA [1] (Huh-7, 48 h treatment (Table 3), read-out: mRNA expression in Huh-7 cells: IC50 (uM), C3) was 0.18 µM; with C3 mRNA [1] (setting [11]) it was 0.2 µM; in the assay with C4a/C4b mRNA [2] (setting [12]) it was 0.07 µM; in the assay with C4a/C4b mRNA [2] (Huh-7, 48 h treatment (Table 3), read-out: mRNA expression in Huh-7 cells: IC50 (uM), C4), 0.065 µM; in the assay with C5 mRNA [3] (setting [13]) it was 270 nM; in the assay with C3 mRNA [4] (HepG2, 48 h, read-out: C3 (48 h) mRNA, half maximal inhibitory concentration (IC50)), 200 nM. Further, the IC50 in the assay on C3 mRNA [4] (setting [14]) was determined as 490 nM; in the assay on C4a/C4b mRNA [5] it was 250 nM; in the assay with C5 mRNA [6] it was 460 nM.
As for `COc1cc(OC)c2c(=O)[nH]c(-c3cc(C)c(OCCO)c(C)c3)nc2c1` [RVX000222, 2-(4-(2-hydroxyethoxy)-3,5-dimethylphenyl)-5,7-dimethoxyquinazolin-4(3H)-one], the IC50 with C3 mRNA [1] (setting [11]) was 1.9 µM; in the assay with C4a/C4b mRNA [2] (setting [12]) it was 5.4 µM; with C4a/C4b mRNA [2] (Huh-7, 48 h treatment, read-out: C4a/C4b (48 h) mRNA, half maximal inhibitory concentration (IC50)), 6.3 µM; in the assay on C5 mRNA [3] (setting [13]) it was 21800 nM; with C5 mRNA [3] (Huh-7, 48 h treatment, read-out: C5 (48 h) mRNA, half maximal inhibitory concentration (IC50)) it was more than 30000 nM; in the assay on C3 mRNA [4] (setting [14]) it was 25000 nM. For the same molecule, the figures for the IC50 in the assay with C4a/C4b mRNA [5] and in the assay on C5 mRNA [6] were 10000 nM and 20000 nM, respectively. Further, in the assay with C3 mRNA [1] (setting [15]), the “expression of complement component 3 at the mRNA level (FIG. 3)” value is reported as “reduces expression”. The “expression of complement component 3 at the mRNA level (FIG. 1)” value in the assay on C3 mRNA [1] (setting [16]) is “reduces expression”. In the assay with C4a/C4b mRNA [2] (setting [15]), the “expression of complement component 4 at the mRNA level (FIG. 3)” value was “reduces expression”. Moreover, the “expression of complement component 4 at the mRNA level (FIG. 1)” value in the assay on C4a/C4b mRNA [2] (setting [16]) is given as “reduces expression”. Also, in the assay with C5 mRNA [3] (setting [15]), the “expression of complement component 5 at the mRNA level (FIG. 3)” value is “reduces expression”. In addition, the “expression of complement component 5 at the mRNA level (FIG. 1)” value with C5 mRNA [3] (setting [16]) is on record as “reduces expression”. In addition, the “expression of complement component 3 at the mRNA level (FIG. 4)” value in the assay on C3 mRNA [4] (setting [17]) is listed as “reduces expression”. Besides, in the assay on C3 mRNA [4] (setting [18]), the “expression of complement component 3 at the mRNA level (FIG. 2)” value is on record as “reduces expression”. In the assay on C4a/C4b mRNA [5] (setting [17]), the “expression of complement component 4 at the mRNA level (FIG. 4)” value is recorded as “reduces expression”. In addition, the “expression of complement component 4 at the mRNA level (FIG. 2)” value with C4a/C4b mRNA [5] (setting [18]) is listed as “reduces expression”. Besides, the “expression of complement component 5 at the mRNA level (FIG. 4)” value in the assay with C5 mRNA [6] (setting [17]) is listed as “reduces expression”. In addition, the “expression of complement component 5 at the mRNA level (FIG. 2)” value in the assay on C5 mRNA [6] (setting [18]) is listed as “reduces expression”. The “C-reactive protein (CRP) % change vs. baseline” value with C-reactive protein is on record as −43.6%. Moreover, the “C5a anaphylatoxin (C5) % change vs. baseline” value in the assay with C5a anaphylatoxin is listed as −28.7%. Besides, in assay [7], the “Complement C1s subcomponent (C1S) % change vs. baseline” value was −6.1%. In the assay with Complement C2, the “Complement C2 (C2) % change vs. baseline” value was −6.7%. Besides, in assay [8], the “Complement C5b-C6 complex (C5 C6) % change vs. baseline” value is −12.0%. Further, the “Complement C5 (C5) % change vs. baseline” value in the assay with Complement C5 is listed as −11.7%. For the same molecule, in the assay on Complement component C6, the “Complement component C6 (C6) % change vs. baseline” value is −14.3%. Moreover, in the assay on Complement component C9, the “Complement component C9 (C9) % change vs. baseline” value was −18.3%. For the same molecule, the “Complement decay-accelerating factor (CD55) % change vs. baseline” value in assay [9] was −4.0%. Moreover, the “Complement factor B (CFB) % change vs. baseline” value in the assay with Complement factor B is −6.8%. Besides, the “Complement factor H (CFH) % change vs. baseline” value with Complement factor H is −5.6%. Also, in the assay on Complement factor I, the “Complement factor I (CFI) % change vs. baseline” value is reported as −6.4%. The “Mannose-binding protein C (MBL2) % change vs. baseline” value in assay [10] was −14.6%.

For the origin of these results see patent US10111885B2, “Compositions and therapeutic methods for the treatment of complement-associated diseases” (Resverlogix Corp., priority 2015, dated 2018).
